Measurements taken from ChEMBL document CHEMBL1157539, “Thousands of chemical starting points for antimalarial lead identification” (Nature, 2010).

Tested on: Plasmodium falciparum
Experiment: GSK_TCMDC: Inhibition of Plasmodium falciparum 3D7 in whole erythrocytes, using parasite LDH activity as an index of growth.
Type: functional, organism-based
Details: Plasmodium falciparum, 3D7

| SMILES | XC50 [nM] |
| --- | --- |
| Cc1cc(N/N=C/c2ccccc2[N+](=O)[O-])c2cccc(C)c2n1 | 548 |
| CCN(CC)CCN(Cc1ccc(-c2ccc(C#N)cc2)cc1)C(=O)Cn1c(CCc2cccc(F)c2F)nc(=O)c2ccccc21 | 5.97 |
| Cc1c(CN2CCCCC2)cccc1OCCCNc1nc(NCCc2ccc(O)cc2)nc(N2CCNCC2)n1 | 223 |
| Cc1nnc2c(NC(=O)/C=C/c3ccc(OC(F)(F)F)cc3)cc3cc(Cl)ccc3n12 | 170 |
| CCOc1cc(C=Cc2nc(O)c3ccccc3n2)cc(Cl)c1O | 1180 |
| O=C(Nc1cc(C(F)(F)F)cc(C(F)(F)F)c1)N1CCC(CN2CCC(c3c[nH]c4ccccc34)CC2)CC1 | 187 |
| Brc1cccc(Nc2nccc(Nc3ccc(Oc4ccccc4)cc3)n2)c1 | 1010 |
| CCCc1cn2c3c(cc(C(=O)N[C@@H](Cc4ccccc4)[C@H](O)CNC4CCCCC4)cc13)N(CC)S(=O)(=O)CC2 | 80.6 |
| COc1cc(NCCCNC(=O)c2ccc(Cl)c(Cl)c2)nc2ccccc12 | 137 |
| Cc1[nH]c(C)c(-c2ccc(OCc3ccc(F)cc3)cc2)c(=O)c1Br | 77.2 |
| CCOc1ccc(OCCCON2C(=N)N=C(N)NC2(C)C)cc1 | 3.2 |
| CSc1nc2nc(C)c(Cc3cccc(C(F)(F)F)c3)c(C)n2n1 | 193 |
| CCC(C)(C)c1ccc(OCCCC(=O)Nc2ccc(Cl)c([N+](=O)[O-])c2)c(C(C)(C)CC)c1 | 969 |
| O=C(NC1CCC(CN2CCC(c3c[nH]c4ccccc34)CC2)CC1)c1[nH]c(=O)[nH]c(=O)c1F (stereo not given) | 796 |
| CC(=O)NC1=NC(C)(C)N(OCc2ccc(Cl)c(Cl)c2)C(NC(C)=O)=N1 | 3.2 |
| COc1nc2c(CCN3CCC(NCc4ccc5c(c4)NCCO5)CC3)c(Cl)cnc2cc1F | 179 |
| COc1cc(NC(=O)c2cc([N+](=O)[O-])ccc2NC(=O)CNC2CCCC(C)C2C)cc(OC)c1 (stereo not given) | 1040 |
| O=C(NCCCCCN1CCC(c2c[nH]c3ccccc23)CC1)Nc1ccc(I)c(Cl)c1 | 969 |
| Cc1ccccc1N1CCN(c2ccc(C(=O)NC(C)C)cn2)CC1 | 901 |
| CN1CCN(CCCN(Cc2cccc(-c3cccc(CNCc4ccc5c(c4)OCO5)c3)c2)C(=O)CCC2CCCC2)CC1 | 952 |
| O=C(Nc1ccc(Cl)c(C(F)(F)F)c1)c1ccc(Cl)c([N+](=O)[O-])c1 | 1120 |
| CCOC(=O)[C@H](Cc1cc([N+](=O)[O-])c(Oc2ccc(OC)c(Cc3ccc(OC)c(C(C)C)c3)c2)c([N+](=O)[O-])c1)NC(=O)C(F)(F)F | 984 |
| COc1ccc(CNCc2ccc(F)cc2)cc1-c1ccc(S(=O)(=O)NCCN2CCCC2)s1 | 706 |
| Cc1cccc2nc(-c3ccc(-c4cccc(CN5CCCC5CN)c4)s3)[nH]c12 (stereo not given) | 867 |

| SMILES | XC50 [nM] |
| --- | --- |
| COc1cc2nc(NCCc3ccccc3)nc(NCCCc3ccccc3)c2cc1OC | 158 |
| CN(CC(=O)Nc1cc(C(F)(F)F)ccc1-n1cncn1)Cc1nc2ccccc2s1 | 1410 |
| Cc1cccc2nc(-c3ccc(-c4ccc(CNCC5CCCO5)cc4)cc3)[nH]c12 (stereo not given) | 678 |
| CCCCNC(=O)[C@H](CC1CCCCC1)NC(=O)c1ccc(O)c(-c2ccc(OC)cc2)c1 | 920 |
| CNCCNCc1cccc(-c2ccc(-c3nc4ccccc4[nH]3)cc2)c1 | 743 |
| CC[C@H](NC(=O)c1c(CN2CCC(N3CCCCC3)CC2)c(-c2ccccc2)nc2c(Cl)c(O)ccc12)c1ccccc1 | 734 |
| Oc1cc(Nc2ccnc3cc(I)ccc23)ccc1F | 740 |
| CCOC(=O)c1ccc(NC(=O)Nc2ccc(-c3ccc(-c4nc5cc(C(F)(F)F)ccc5[nH]4)cc3)cc2)cc1 | 273 |
| N#Cc1cccc(C(=O)NC2CCN(CCCCCNC(=O)/C=C/c3ccc(Cl)c(Cl)c3)CC2)c1 | 876 |
| OCC(c1ccccc1)n1c(COc2ccc(Cl)cc2)nc2c(OCCCN3CCCCC3)cccc21 (stereo not given) | 916 |
| Cc1cc(N)c2cc(NC(=O)CCC(=O)Nc3ccc4nc(C)cc(N)c4c3)ccc2n1 | 954 |
| COc1ccc(C(=O)NC(c2ccc(Cl)cc2Cl)c2cc(Cl)c3cccnc3c2O)cc1 (stereo not given) | 499 |
| CCCCCNC(=N)N/N=C/c1c[nH]c2ccc(OC)cc12 | 955 |
| CCOc1ccccc1C1C(C(=O)C(C)(C)C)N2c3ccc(Br)cc3C=CC2C12C(=O)c1ccccc1C2=O (stereo not given) | 853 |
| CC(CN(C)C)C(=O)Nc1cccc(-c2ccc(-c3nc4ccccc4[nH]3)s2)c1 (stereo not given) | 743 |
| NCC1CCCN1Cc1ccc(-c2ccc(-c3nc4cc(F)ccc4[nH]3)cc2)cc1 (stereo not given) | 926 |
| CCc1ccc(C(=O)Nc2cccc(CN3CCCN(Cc4ccc(O)cc4)CC3)c2)cc1 | 1030 |
| CC(=O)Nc1cccc(CNCc2ccc(-c3cnc(N4CCCC(c5ccccc5)C4)nc3)cc2)c1 (stereo not given) | 1190 |
| O=C(c1cccc(-c2cccc(-c3nc4cc(C(F)(F)F)ccc4[nH]3)c2)c1)N1CCCCC1CN1CCC(O)C1 (stereo not given) | 279 |
| COc1ccc2nccc(C(=O)NC3CCC(CCN4CCc5cc(C#N)ccc5C4)CC3)c2c1 (stereo not given) | 1160 |
| Cc1cc(OCCCN2CCC(NS(=O)(=O)c3cc(Br)c(Cl)s3)CC2)c2ccccc2n1 | 851 |
| CC(C)(CNC(=O)C1CCN(Cc2ccc(Cl)cc2)CC1)c1nc(-c2ccc(Cl)c(O)c2)c(-c2ccncc2)[nH]1 | 623 |
| COc1ccc2ncc(F)c(CCN3CCC(CNCc4cccc5c4OCO5)CC3)c2n1 | 934 |
| CCc1ccc(CN2CCC(CNC(=O)c3cc(-c4cccc(Cl)c4)cs3)C2)cc1 (stereo not given) | 1110 |

| SMILES | XC50 [nM] |
| --- | --- |
| CCc1sc(-c2ccc(C(C)(C)C)cc2)nc1C(=O)NCCCN1CCCC1=O | 988 |
| Fc1cccc(COc2ccc(Nc3ncnc4sc(C#C[C@H]5CCCN5)cc34)cc2F)c1 | 871 |
| Cc1cccc2nc(-c3ccc(-c4ccc(NC(=O)C(C)CN(C)C)cc4)s3)[nH]c12 (stereo not given) | 409 |
| CN1CCC(c2csc3ccc(NC(=O)Nc4ccc(-c5ccncc5)c5ccccc45)cc23)CC1 | 1020 |
| O=S(=O)(Nc1ccc(CCN2CCC(N3CCCCC3)CC2)cc1)c1ccc2ccccc2c1 | 1010 |
| Cc1ccc(NC(=O)c2cc(S(=O)(=O)NC(C)(C)C)ccc2C)nc1 | 756 |
| CN1CCN(CCCN(Cc2ccc(-c3cccc(CNCc4ccc5c(c4)OCO5)c3)cc2)C(=O)Nc2ccccc2)CC1 | 183 |
| COC(=O)c1ccc(C2OC3(C(=O)c4ccccc4C3=O)C(OC)=C2Cl)cc1C(C)=O (stereo not given) | 546 |
| O=C(NCc1ccccn1)C(c1cc2ccccc2o1)N1CCN(C(c2ccccc2)c2ccccc2)CC1 (stereo not given) | 856 |
| Cc1ccnc(NC(c2cccc(OCc3ccccc3)c2)c2ccc3cccnc3c2O)c1 (stereo not given) | 864 |
| COc1ccc2ncc(Cl)c(CCN3C[C@H](CNCc4ccc5c(n4)NC(=O)CS5)[C@H](O)C3)c2n1 | 1000 |
| O=C(Nc1ccc(F)cc1)N1CCCN(c2ccnc3cc(Cl)ccc23)CC1 | 785 |
| C=C(C)Cn1cc(C2CCN(CCN3CCC(CNC(=O)c4ccc(-c5ccc(C#N)cc5)cc4)CC3)CC2)c2ccccc21 | 433 |
| O=C(Nc1ccc(F)cc1)NC1CCN(CCCCCNC(=O)C2CC2c2ccc(Cl)c(Cl)c2)CC1 (stereo not given) | 987 |
| CCN1CCC(N2CCC(C(=O)Nc3cccc(-c4cccc(Cl)c4)c3)CC2)CC1 | 1080 |
| CC(Cc1ccc(C(=O)Nc2ccc(CC(C)NCCc3cccc(Cl)c3)cc2)cc1)NCCc1ccc(C(F)(F)F)cc1 (stereo not given) | 570 |
| O=S(=O)(c1ccc(OCc2ccc(Cl)cc2)cc1)c1cc2c(cc1O)CCN(C1CCC1)CC2 | 942 |
| COc1cc2nc(Cl)nc(Nc3ccncc3)c2cc1OC | 1210 |
| c1ccc(-c2cc(NCCCCCCCCNc3cc(-c4ccccc4)nc4ccccc34)c3ccccc3n2)cc1 | 395 |
| COc1ccc(OC)c(NC(=O)CSc2nc(-c3ccccc3Cl)ns2)c1 | 835 |
| CCN(CC)CCCCNc1cc(-c2[nH]c(C(C)(C)C)nc2-c2ccc3cc(OC)ccc3c2)ccn1 | 531 |
| CC(C)CC1c2[nH]c3ccccc3c2CCN1C(=O)CCc1ccccc1 (stereo not given) | 965 |
| CCOC(=O)c1c(CN2CCN(C)CC2)n(Cc2ccccc2)c2cc(Br)c(O)cc12 | 595 |
| Cc1cccc2nc(-c3cccc(-c4cccc(C(=O)N5CCCCC5CN5CCC(O)C5)c4)c3)[nH]c12 (stereo not given) | 463 |

| SMILES | XC50 [nM] |
| --- | --- |
| CC(C)NCc1cc(Nc2ccnc3cc(Cl)ccc23)ccc1O | 25 |
| Cc1ccc(C)c2sc(N(CCCn3ccnc3)C(=O)c3ccco3)nc12 | 874 |
| O=C(NCCCCN1CCC(c2ccc3c(c2OCCCO)CCCC3)CC1)c1ccc(-c2ccc(C(F)(F)F)cc2)cc1 | 718 |
| CCCCCCOc1ccc(C(=O)N(Cc2ccccc2)c2c(-c3ccccc3)nc3cc(C)ccn23)cc1 | 774 |
| Cc1noc(C)c1-c1cccc(CNCc2cccc(-c3ccc(-c4nc5ccccc5[nH]4)cc3)c2)c1 | 228 |
| Cc1cc(N[C@@H](CC(C)C)C(=O)Nc2ccccc2)nc(NCc2ccccc2C)n1 | 777 |
| CCCc1cc(N2CCC(N3CCCC3)CC2)nc(Nc2ccc(Cl)cc2)n1 | 765 |
| CCN(CC)CCCC(C)Nc1c2ccccc2nc2ccc3ccccc3c12 (stereo not given) | 1040 |
| COc1cc(C(=O)NC2CCN(Cc3ccccc3)CC2)ccc1-c1nc2cc(Cl)c(C)cc2[nH]1 | 304 |
| Cc1ccccc1C1CCN(C2CCC(NC(=O)/C=C/c3cc(C(F)(F)F)ccc3F)CC2)CC1 (stereo not given) | 839 |
| COc1ccc(Nc2ccnc3cc4ccccc4cc23)cc1 | 683 |
| CCOC(=O)C1=C(C)NC(C)=C(C(=O)OCC)C1(C(=O)OCc1ccccc1)c1cccc(C(F)(F)F)c1 | 1230 |
| Cc1cc(N(C)C)nc(Nc2ccc(NC(=O)Nc3ccccc3)cc2)n1 | 134 |
| Cc1ccc2c(=O)n(C)c(=O)n(C)c2n1 | 819 |
| Cc1ccc(S(=O)(=O)N2CCN(C(=O)c3cc(-c4cccs4)n[nH]3)CC2)c(C)c1 | 866 |
| Cc1cccc2[nH]cc(C3CCN(CCC4CCN(C(=O)/C=C/c5ccc(Cl)c(Cl)c5)CC4)CC3)c12 | 1220 |
| OC(c1ccccc1)C1CN(CCC2CC3CCC2C3)CCC1(O)c1ccccc1 (stereo not given) | 346 |
| CC1CCC(NC(=O)c2nn(-c3ccc(Cl)cc3)c(=O)c3ccccc23)CC1 (stereo not given) | 1080 |
| CC[C@H]1CN2CCc3c([nH]c4ccccc34)[C@@H]2C[C@@H]1CC1c2cc(OC)c(OC)cc2CCN1C (stereo not given in full) | 1090 |
| COc1cc(Nc2nccc(N3CCC(NC(=O)C(C)c4ccc(Cl)cc4)C3)n2)cc(OC)c1OC (stereo not given) | 757 |
| COc1cc(NCC(CN)Cc2ccc3c(c2)OCO3)nc2ccccc12 (stereo not given) | 820 |
| Cc1ccc(NC(=O)c2ccc(NCCCN(C)Cc3ccccc3)c([N+](=O)[O-])c2)cc1F | 701 |
| O=C(/C=C/c1ccc(Cl)c(Cl)c1)NCCCCCN1CCC(NC(=S)Nc2ccc(Cl)cc2)CC1 | 443 |
